We go through 23 compounds from ChEMBL document CHEMBL4340509, “Synthesis and evaluation of novel GSK-3β inhibitors as multifunctional agents against Alzheimer's disease” (Eur J Med Chem, 2019).

Data set [1] addresses T1, Glycogen synthase kinase-3 beta (Homo sapiens, UniProt P49841). Put plainly: Inhibition of GSK-3beta (unknown origin) using FAM-labeled peptide as substrate preincubated for 10 mins followed by substrate addition by caliper assay.
Target sequence in this assay (P49841 whole entry): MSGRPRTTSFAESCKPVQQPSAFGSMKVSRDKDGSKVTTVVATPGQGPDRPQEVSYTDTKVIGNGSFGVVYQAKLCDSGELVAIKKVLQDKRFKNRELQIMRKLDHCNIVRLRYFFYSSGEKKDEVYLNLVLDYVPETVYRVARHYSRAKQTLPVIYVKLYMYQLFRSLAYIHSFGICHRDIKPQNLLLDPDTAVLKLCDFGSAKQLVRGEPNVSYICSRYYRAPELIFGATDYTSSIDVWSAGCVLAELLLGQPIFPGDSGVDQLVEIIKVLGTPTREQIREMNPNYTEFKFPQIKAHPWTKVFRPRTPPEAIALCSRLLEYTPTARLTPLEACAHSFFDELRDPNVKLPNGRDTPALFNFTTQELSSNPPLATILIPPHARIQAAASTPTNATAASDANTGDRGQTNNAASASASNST
Data set [2] is described as follows: Metal chelating activity assessed as compound-Al3+ complex formation at 20 uM in the presence of AlCl3 after 30 mins by UV-visible spectrophotometric analysis.
Data set [3] addresses T1, Glycogen synthase kinase-3 beta. Description: Inhibition of GSK-3beta (unknown origin) at 1 uM using FAM-labeled peptide as substrate preincubated for 10 mins followed by substrate addition by caliper assay relative to control.
Target sequence in this assay (P49841 whole entry, looked up): as the sequence (P49841 whole entry) above
Data set [4] can be described thus: Metal chelating activity assessed as compound-Zn2+ complex formation at 20 uM in presence of ZnCl2 after 30 mins by UV-visible spectrophotometric analysis.
Data set [5] is described as follows: Metal chelating activity assessed as compound-Cu2+ complex formation at 20 uM in presence of CuCl2 after 30 mins by UV-visible spectrophotometric analysis.
Data set [6] can be described thus: Metal chelating activity assessed as K+-compound complex formation at 20 uM in the presence of KCl after 30 mins by UV-vis spectrophotometric analysis.
Data set [7] in a line: Metal chelating activity assessed as compound-Ca2+ complex formation at 20 uM in the presence of CaCl2 after 30 mins by UV-visible spectrophotometric analysis.
Data set [8] can be described thus: Metal chelating activity assessed as compound-Mg2+ complex formation at 20 uM in the presence of MgCl2 after 30 mins by UV-visible spectrophotometric analysis.
Data set [9] is described as follows: Metal chelating activity assessed as compound-Fe2+ complex formation at 20 uM in the presence of FeSO4 after 30 mins by UV-visible spectrophotometric analysis.
A short description of data set [10]: Metal chelating activity assessed as Na+-compound complex formation at 20 uM in the presence of NaCl after 30 mins by UV-vis spectrophotometric analysis.
The nature of data set [11]: Metal chelating activity assessed as compound-Cu2+ complex formation by measuring shift in maximum absorption wavelength at 20 uM in presence of CuCl2 after 30 mins by UV-visible spectrophotometric analysis (reference value: 327 nanometer).
Data set [12] is described as follows: Metal chelating activity assessed as compound-Cu2+ complex formation by measuring shift in maximum absorption wavelength at 20 uM in presence of CuCl2 after 30 mins by UV-visible spectrophotometric analysis (reference value: 338 nanometer).
In data set [13] the test system is SH-SY5Y. Put plainly: Neuroprotective activity against Cu2+-mediated amyloid beta (1 to 42) (unknown origin)-induced cytotoxicity in human SH-SY5Y cells assessed as increase in cell viability at 2 uM measured after 24 hrs by MTT assay. It is filed as functional, cell-based.
Data set [14] is described as follows: Inhibition of Cu2+-induced HFIP pretreated human amyloid beta (1 to 42) aggregation at 40 uM measured after 24 hrs by ThT-based fluorescence assay relative to control.
The nature of data set [15]: Disaggregation of Cu2+ induced human HFIP-pretreated amyloid beta (1 to 42) preformed fibrils at 40 uM measured after 24 hrs by ThT-based fluorescence assay relative to control.
Data set [16] in a line: Metal chelating activity assessed as compound-Cu2+ complex formation by measuring shift in maximum absorption wavelength at 20 uM in presence of CuCl2 after 30 mins by UV-visible spectrophotometric analysis (reference value: 311 nanometer).
Data set [17] has as its system PC-12. Put plainly: Neuroprotective activity against H2O2-induced oxidative damage in rat PC12 cells assessed as cell viability at 10 uM measured after 24 hrs by MTT assay relative to control. It is filed as functional. To be noted: PC-12, 24 h, read-out: Activity.
Data set [18] concerns PC-12. Put plainly: Cytotoxicity against rat PC12 cells measured after 24 hrs by MTT assay. The conditions noted are these: PC-12, 24 h. It is filed as cell-based. On the technique in general: Formazan colour is commonly taken as a measure of viable cells.
Data set [19] concerns SH-SY5Y. Description: Neuroprotective activity against H2O2-induced oxidative damage in human SH-SY5Y cells assessed as increase in cell viability measured after 24 hrs by MTT assay. It is filed as functional, cell-based.
The target of data set [20] is Amyloid-beta precursor protein (Homo sapiens) (UniProt P05067). Put plainly: Disaggregation of HFIP-pretreated human amyloid beta (1 to 42) preformed fibrils at 40 uM after 24 hrs by ThT-based fluorometric method relative to control.
Data set [21] shares this target. Put plainly: Inhibition of human HFIP-pretreated amyloid beta (1 to 42) self aggregation at 40 uM after 24 hrs by ThT-based fluorometric method relative to control.
For data set [22], the system named is SH-SY5Y. Description: Cytotoxicity against human SH-SY5Y cells measured after 24 hrs by MTT assay. The class given is cell-based.
A short description of data set [23]: Potency index, ratio of trolox IC50 to test compound IC50 for ABTS radical scavenging activity. It is filed as functional.
Data set [24] deals with SH-SY5Y. Description: Neuroprotective activity against amyloid beta (1 to 42) (unknown origin)-induced cytotoxicity in SH-SY5Y cells assessed as cell viability at 2 uM measured after 24 hrs by MTT assay (reference value: 78%). To be noted: Homo sapiens. The class given is functional.
Data set [25] addresses T1, Glycogen synthase kinase-3 beta. Put plainly: Inhibition of GSK3bbeta in human SH-SY5Y cells assessed as reduction in human amyloid beta (25 to 35) peptide-induced tau hyperphosphorylation at Ser396 residue at 25 uM preincubated for 1 hr followed by amyloid beta-stimulation and measured after 6 hrs by Western blot analysis relative to control. The class given is cell-based. In general terms: A western blot detects proteins with antibodies after separation by electrophoresis.
Target sequence in this assay (P49841 whole entry, looked up): as the sequence (P49841 whole entry) above

The target is the same in data set [26]. Description: Inhibition of GSK3bbeta in human SH-SY5Y cells assessed as reduction in human amyloid beta (25 to 35) peptide-induced tau hyperphosphorylation at Ser396 residue preincubated for 1 hr followed by amyloid beta-stimulation and measured after 6 hrs by Western blot analysis. The class given is cell-based.
Target sequence in this assay (P49841 whole entry, looked up): as the sequence (P49841 whole entry) above
Data set [27] deals with SH-SY5Y. Description: Neuroprotective activity against H2O2-induced oxidative damage in human SH-SY5Y cells assessed as cell viability at 10 uM measured after 24 hrs by MTT assay relative to control. It is filed as functional. To be noted: read-out: Activity.
Data set [28] in a line: Metal chelating activity assessed as inhibition of Cu(II)/ascorbate-induced ROS production by measuring fluorescence intensity at 100 uM measured at 20 secs interval for 1000 secs by fluorescence assay (reference value: 10 to 52).
For data set [29], the system named is SH-SY5Y. Description: Cytotoxicity against human SH-SY5Y cells at 2 uM in the presence of CuCl2 measured after 24 hrs by MTT assay. It is filed as cell-based.
Data set [30] is described as follows: Antioxidant activity assessed as ABTS radical scavenging activity incubated for 6 mins. It is filed as functional.
Data set [31] in a line: Metal chelating activity assessed as compound-Cu2+ complex formation by measuring shift in maximum absorption wavelength at 20 uM in presence of CuCl2 after 30 mins by UV-visible spectrophotometric analysis (reference value: 326 nanometer).

Broadly, the IC50 is the midpoint of a concentration-inhibition curve. As a reminder, the inhibition is the drop in the measured response relative to a control, in per cent.

The source made the active and inactive calls. The rule behind the calls is not given here. Some results are limits rather than exact numbers.

Amyloid-beta precursor protein (Homo sapiens), sequence (P05067 whole entry): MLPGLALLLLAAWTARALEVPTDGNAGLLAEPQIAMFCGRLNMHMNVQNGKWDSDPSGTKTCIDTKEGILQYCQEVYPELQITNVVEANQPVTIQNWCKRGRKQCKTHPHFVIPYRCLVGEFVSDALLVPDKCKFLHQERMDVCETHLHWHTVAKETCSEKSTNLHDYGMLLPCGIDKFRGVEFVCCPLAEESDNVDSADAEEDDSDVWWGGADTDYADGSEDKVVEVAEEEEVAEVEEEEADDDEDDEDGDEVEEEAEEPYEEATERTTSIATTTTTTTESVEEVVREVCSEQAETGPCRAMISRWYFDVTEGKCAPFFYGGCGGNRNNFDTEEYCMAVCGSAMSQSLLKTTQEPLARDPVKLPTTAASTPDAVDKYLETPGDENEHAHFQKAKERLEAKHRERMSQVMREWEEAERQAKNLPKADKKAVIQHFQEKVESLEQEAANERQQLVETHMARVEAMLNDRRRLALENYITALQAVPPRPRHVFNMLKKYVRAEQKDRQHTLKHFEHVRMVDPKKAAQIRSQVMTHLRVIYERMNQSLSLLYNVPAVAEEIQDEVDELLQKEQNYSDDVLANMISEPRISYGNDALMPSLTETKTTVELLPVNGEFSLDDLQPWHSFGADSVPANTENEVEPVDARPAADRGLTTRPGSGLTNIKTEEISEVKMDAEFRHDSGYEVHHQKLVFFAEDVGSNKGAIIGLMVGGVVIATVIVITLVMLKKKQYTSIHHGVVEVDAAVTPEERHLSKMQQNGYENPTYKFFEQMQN

`Cc1csc(-c2cnc(N)c(/N=C/c3ccnc(NC(=O)C4CC4)c3)c2)c1` gave a half-inhibitory concentration (IC50) in data set [1] of 0.315 µM.

`Nc1nccc(-c2ccc(Cl)cc2)c1/N=C/c1ccnc(NC(=O)C2CC2)c1` displayed a 50% inhibitory concentration (IC50) in data set [1] of over 2 µM.

Turning to `Cc1csc(-c2cnc(N)c(NC(=O)c3ccnc(NC(=O)C4CC4)c3)c2)c1`, the result in data set [2], in data set [4] and in data set [5] was inactive. Moreover, the inhibition in data set [3] was found to be 102%. This compound came in with an IC50 in [1] of 0.219 µM.

In [1], `Nc1nccc(-c2cccc(F)c2)c1/N=C/c1ccnc(NC(=O)C2CC2)c1` registered an IC50 of 0.891 µM.

As for `Cc1ccc(-c2ccnc(N)c2/N=C/c2ccnc(NC(=O)C3CC3)c2)cc1`, in [1], the IC50 is 1.25 µM.

With `Nc1nccc(-c2ccccc2)c1/N=C/c1ccnc(NC(=O)C2CC2)c1`, it took 0.633 µM to reach half-maximal inhibition in [1] (IC50).

As for `Cc1ccc(-c2cnc(N)c(NCc3ccnc(NC(=O)C4CC4)c3)c2)cc1`, the outcome in data set [6], in data set [7], in data set [2], in data set [4], in data set [8] and in data set [9] was inactive. In addition, in [10], the outcome was inactive. Besides, in data set [3], the inhibition stood at 28%. Besides, the Activity in data set [11] was determined as 422 nm.

`Nc1ncc(-c2ccccc2)cc1NC(=O)c1ccnc(NC(=O)C2CC2)c1`: the result in [2], in data set [4] and in data set [5] was inactive. Further, the inhibition in data set [3] amounted to 98%. The compound further showed an IC50 in data set [1] of 0.148 µM.

With `Cc1csc(-c2cnc(N)c(NCc3ccnc(NC(=O)C4CC4)c3)c2)c1`, the outcome in [6], in [7], in data set [2], in data set [4], in data set [8] and in data set [9] was inactive. The outcome in data set [10] was inactive. For the same compound, the Activity in data set [12] was found to be 440 nm. Also, in [3], the inhibition was found to be 17%.

Regarding `Oc1c(I)cc(Cl)c2cccnc12`, the outcome in [13] was Active. The inhibition in data set [14] turned out to be 38.8%. The Activity in data set [15] came out at 34.9%.

For `Nc1ncc(-c2ccncc2)cc1NCc1ccnc(NC(=O)C2CC2)c1`, the outcome in data set [6], in data set [7], in data set [2], in [4], in data set [8] and in data set [9] was inactive. In data set [10], the result was inactive. Further, the inhibition in data set [3] was 27%.

For the compound `Nc1ncccc1NCc1ccnc(NC(=O)C2CC2)c1`, the Activity in data set [16] came out at 402 nm. Further, the result in data set [6], in [7], in data set [2], in data set [4], in data set [8] and in data set [9] was inactive. The result in data set [10] was inactive. Further, the inhibition in data set [3] stood at 33%.

As for `Nc1ncc(-c2ccc(F)cc2)cc1/N=C/c1ccnc(NC(=O)C2CC2)c1`, the concentration for half-maximal inhibition (IC50) in data set [1] amounted to 0.418 µM.

With `Nc1ncc(-c2ccncc2)cc1NC(=O)c1ccnc(NC(=O)C2CC2)c1`, the result in [2], in [4] and in data set [5] was inactive. The inhibition in data set [3] turned out to be 99%. The same compound showed an IC50 in data set [1] of 0.199 µM.

In the case of `Cc1ccc(-c2cnc(N)c(NC(=O)c3ccnc(NC(=O)C4CC4)c3)c2)cc1`, the outcome in data set [2], in [4] and in [5] was inactive. The inhibition in [3] was 99%. This compound showed an IC50 in data set [1] of 0.127 µM.

Consider `Nc1ncccc1NC(=O)c1ccnc(NC(=O)C2CC2)c1`, for which the outcome in data set [2], in data set [4] and in data set [5] was inactive. Further, in [3], the inhibition amounted to 77%. For the same compound, in [1], the IC50 was 0.629 µM.

For `Nc1ncccc1/N=C/c1ccnc(NC(=O)C2CC2)c1`, the outcome in data set [6], in data set [7], in data set [20], in data set [2], in data set [4] and in [8] was inactive. Further, the result in [9], in data set [24], in data set [5] and in [10] was inactive. For the same compound, the viability at 10 µM in data set [17] worked out at 72.6%; in data set [27], 92.1%. Besides, the 50% inhibitory concentration (IC50) in [18] was 152 µM; in data set [22], over 200 µM; in data set [1], 0.071 µM; in [30] it was 3.88 µM. Moreover, the result in data set [13] was Active. Besides, the Activity result in data set [19] is “Dose-dependent effect”; in data set [15] it was 42.5%; in data set [29], “Non-Toxic”. Also, in data set [21], the inhibition entry is “inactive”. The Ratio IC50 in [23] lay in the range of 2 to 4. The results for the inhibition in [14], in data set [25] and in data set [26] were 24.3%, under 50% and “Dose-dependent effect”, respectively. Also, in [28], the Flu intensity was in the range of 22 to 40.

Take `Nc1ncc(-c2ccccc2)cc1NCc1ccnc(NC(=O)C2CC2)c1`: the result in data set [6], in data set [7], in data set [2], in data set [4], in data set [8] and in [9] was inactive. Moreover, in data set [10], the result was inactive. In addition, the inhibition in data set [3] stood at 27%. In addition, in data set [31], the Activity was 422 nm.

In turn, `Nc1nccc(-c2ccc(F)cc2)c1/N=C/c1ccnc(NC(=O)C2CC2)c1` gave an IC50 in [1] of 1.2 µM.

For `Cc1ccc(-c2cnc(N)c(/N=C/c3ccnc(NC(=O)C4CC4)c3)c2)cc1`, the IC50 in data set [1] turned out to be 0.372 µM.

For the compound `Cc1c(C)c2c(c(C)c1O)CCC(C)(C(=O)O)O2` (stereo unspecified) [TROLOX], the viability at 10 µM in data set [17] worked out at 79%; in data set [27] it was 90%. For the same compound, the IC50 in [30] was 14.3 µM.

For the compound `COc1cc(/C=C/C(=O)CC(=O)/C=C/c2ccc(O)c(OC)c2)ccc1O` [CURCUMIN], in [20], the Activity came to 43%. The viability at 2 µM in data set [24] (read-out: Activity) came out at 88%.

As for `Nc1ncc(-c2ccc(F)cc2)cc1NC(=O)c1ccnc(NC(=O)C2CC2)c1`, the outcome in [2], in data set [4] and in data set [5] was inactive. The inhibition in [3] is 95%. Also, the concentration for half-maximal inhibition (IC50) in [1] came to 0.24 µM.
